Measurements from US20110039721A1, “METHOD FOR PREDICTION ABOUT CARCINOGENICITY OF SUBSTANCE IN RODENT” (Chemicals Evaluation and Research Institute, priority 2007, published 2011).

Assays:
[1] = classification of the substance (M+/M−); cited from earlier work
liver = conditions: classification of the substance (Cr+/Cr−); cited from earlier work
rodent = conditions: classification of the substance (C+/C−); cited from earlier work
[2] = test system: mRNA expressed from the genes (A) to (D) in rat liver; assay: Behavior of genes (mRNA expression level, oligo-DNA microarray) in rat liver after 28-day oral administration; type: in vivo; conditions: mRNA vs vehicle control group
Procedure, shortened: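 Rat liver RNA after 28 days of daily gavage dosing (male F344, 5 weeks old, four per group). A change reaching 1.5-fold, or 1/1.5, against solvent control scores as significant; opposite direction versus another carcinogen scores as not significant.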

[3] = gene group (A), Unigene No. Rn.167075
[4] = gene group (C), Unigene No. Rn.120914

For `COc1ccc(O)c(C(C)(C)C)c1` [TS023, Butylated hydroxyanisole], the “Mutagenicity by Ames test” value [1] is listed as “M−”, the Liver carcinogenicity (liver) is listed as “Cr−” and the Carcinogenicity (rodent) is listed as “C+”. The “Behavior of gene caused by administration of chemical substance, Gene No. 4846” value ([2]; gene group (A), Unigene No. Rn.144554) was “−”, the “Behavior of gene caused by administration of chemical substance, Gene No. 2026” value [2, 3] was “−” and the “Behavior of gene caused by administration of chemical substance, Gene No. 4218” value [2, 3] was “−”. The “Behavior of gene caused by administration of chemical substance, Gene No. 6182” value ([2]; gene group (A), Unigene No. Rn.5834) was “−”, the “Behavior of gene caused by administration of chemical substance, Gene No. 5600” value ([2]; gene group (A), Unigene No. Rn.9836) was “−” and the “Behavior of gene caused by administration of chemical substance, Gene No. 1494” value ([2]; gene group (B), Unigene No. Rn.1430) was “−”. For the same compound, the “Behavior of gene caused by administration of chemical substance, Gene No. 2045” value ([2]; gene group (B), Unigene No. Rn.19329) was “−”, the “Behavior of gene caused by administration of chemical substance, Gene No. 2203” value ([2]; gene group (B), Unigene No. Rn.21240) was “+” and the “Behavior of gene caused by administration of chemical substance, Gene No. 533” value ([2]; gene group (C), Unigene No. Rn.106184) was “−”. The “Behavior of gene caused by administration of chemical substance, Gene No. 725” value ([2]; gene group (C), Unigene No. Rn.108075) was “+”, the “Behavior of gene caused by administration of chemical substance, Gene No. 1163” value ([2]; gene group (C), Unigene No. Rn.11766) was “+” and the “Behavior of gene caused by administration of chemical substance, Gene No. 4973” value ([2]; gene group (C), Unigene No. Rn.118529) was “+”. For the same compound, the “Behavior of gene caused by administration of chemical substance, Gene No. 4095” value ([2]; gene group (C), Unigene No. Rn.119024) was “+”, the “Behavior of gene caused by administration of chemical substance, Gene No. 1334” value [2, 4] was “−” and the “Behavior of gene caused by administration of chemical substance, Gene No. 6620” value [2, 4] was “−”. The “Behavior of gene caused by administration of chemical substance, Gene No. 6303” value ([2]; gene group (C), Unigene No. Rn.123063) was “−”, the “Behavior of gene caused by administration of chemical substance, Gene No. 5878” value ([2]; gene group (C), Unigene No. Rn.143213) was “−” and the “Behavior of gene caused by administration of chemical substance, Gene No. 1131” value ([2]; gene group (C), Unigene No. Rn.144946) was “−”. The “Behavior of gene caused by administration of chemical substance, Gene No. 1562” value ([2]; gene group (C), Unigene No. Rn.14744) was “−”, the “Behavior of gene caused by administration of chemical substance, Gene No. 1741” value ([2]; gene group (C), Unigene No. Rn.1647) was “−” and the “Behavior of gene caused by administration of chemical substance, Gene No. 893” value ([2]; gene group (C), Unigene No. Rn.164817) was “−”. The “Behavior of gene caused by administration of chemical substance, Gene No. 6026” value ([2]; gene group (C), Unigene No. Rn.167685) was “−”, the “Behavior of gene caused by administration of chemical substance, Gene No. 154” value ([2]; gene group (C), Unigene No. Rn.185941) was “+” and the “Behavior of gene caused by administration of chemical substance, Gene No. 1993” value ([2]; gene group (C), Unigene No. Rn.18728) was “−”. The “Behavior of gene caused by administration of chemical substance, Gene No. 813” value ([2]; gene group (C), Unigene No. Rn.201760) was “−”, the “Behavior of gene caused by administration of chemical substance, Gene No. 2494” value ([2]; gene group (C), Unigene No. Rn.23969) was “−” and the “Behavior of gene caused by administration of chemical substance, Gene No. 2546” value ([2]; gene group (C), Unigene No. Rn.24561) was “−”. The “Behavior of gene caused by administration of chemical substance, Gene No. 3776” value ([2]; gene group (C), Unigene No. Rn.43232) was “−”, the “Behavior of gene caused by administration of chemical substance, Gene No. 3929” value ([2]; gene group (C), Unigene No. Rn.4620) was “−” and the “Behavior of gene caused by administration of chemical substance, Gene No. 1119” value ([2]; gene group (C), Unigene No. Rn.9757) was “−”. The “Behavior of gene caused by administration of chemical substance, Gene No. 6742” value ([2]; gene group (C), Unigene No. Rn.9779) was “−”, the “Behavior of gene caused by administration of chemical substance, Gene No. 5634” value ([2]; gene group (C), Unigene No. Rn.9862) was “−” and the “Behavior of gene caused by administration of chemical substance, Gene No. 5726” value ([2]; gene group (D), Unigene No. Rn.9939) was “−”.
